Results taken from US10059956B2, “Glycosyltransferase gene and use thereof” (SUNTORY HOLDINGS LIMITED, priority 2012, dated 2018).

Tested on: NmGT8 protein
Assay: Enzyme reaction of flavone substrates with His-tag purified NmGT8 protein solution and UDP-glucose (HPLC)
Format: biochemical, Nemophila menziesii
Conditions: NmGT8 protein solution, UDP-glucose, 1 mM substrate stock, 20 minutes at 30° C., HPLC 330 nm
Protocol: The transformed E. coli were cultured at 37° C. to an OD600 value of 0.5 in 8 ml of the prepared culture liquid (approx. 4 hours). This E. coli culture liquid was then used as a pre-culture liquid and added to 200 ml of culture liquid followed by final culturing overnight at 25° C.
Following final culturing overnight, the E. coli culture liquid was centrifuged (1000×g, 4° C., 10 minutes), the collected cells were suspended in 20 ml of extract (composition: buffer (KCl: 300 mM, KH2PO4: 50 mM, imidazole: 5 mm) (pH 8.0), amidinophenylmethanesulfonyl fluoride hydrochloride (APMSF): 10 μM), and after crushing the E. coli by ultrasonic treatment, the crushed cells were centrifuged (1400×g, 4° C., 20 minutes) followed by recovery of the supernatant. This supernatant was passed through a 0.45 μm filter and purified by His-Tag protein purification using Profinia (Bio-Rad Laboratories, Inc.) in accordance with the protocol recommended by the manufacturer. The resulting purified protein solution was centrifuged (7500×g, 4° C., 15 minutes) using centrifugal filters (Ultracel-10K, Amicon Corp.) and the concentrated protein solution was designated as “NmGT8 Protein Solution”. The Avanti HP-26XP (rotor: JA-2) (Beckman Coulter Inc.) was used for centrifugation.
A reaction liquid prepared by mixing 10 μl of protein solution, 2 μl of 50 mM UDP-glucose, 10 μl of 1 M Tris HCl (pH 7.5) and 5 μl of 1 mM apigenin on ice and bringing to a volume of 100 μl with water was held for 20 minutes at 30° C. Subsequently, 100 μl of stop buffer (90% aqueous acetonitrile solution containing 0.1% TFA) were added to stop the reaction followed by analyzing the reaction liquid by high-performance liquid chromatography (Prominence (Shimadzu Corp.)). The Shimadzu PDA SPD-M10AVP was used for the detector and flavone was detected at 330 nm. The Shim-Pack ODS 150 mm×4.6 mm column (Shimadzu Corp.) was used for the column. A Solution A (0.1% aqueous TFA solution) and a Solution B (90% aqueous methanol solution containing 0.1% TFA) were used for elution. Elution was carried out using a linear concentration gradient from an 8:2 mixture of the two solutions to a 3:7 mixture of the two solutions over the course of 10 minutes followed by a 3:7 mixture for 6 minutes. The flow rate was 0.6 ml/min.

Structure (SMILES)	glycosylation product biosynthesized from the substrate
O=c1cc(-c2ccc(O)cc2)oc2cc(O[C@@H]3O[C@H](CO)[C@@H](O)[C@H](O)[C@H]3O)cc(O)c12 [apigenin 7-glucoside]	apigenin 4′,7-diglucoside was not biosynthesized
O=c1cc(-c2ccc(O)cc2)oc2cc(O)cc(O)c12 [apigenin, 4′,5,7-trihydroxyflavone]	flavone demonstrating the same retention time and absorption maximum as purified apigenin 4′-glucoside was biosynthesized
O=c1cc(-c2ccc(O)c(O)c2)oc2cc(O[C@@H]3O[C@H](CO)[C@@H](O)[C@H](O)[C@H]3O)cc(O)c12 [luteolin 7-glucoside]	luteolin 4′,7-diglucoside was also not biosynthesized
O=c1cc(-c2ccc(O)c(O)c2)oc2cc(O)cc(O)c12 [luteolin, 3′,4′,5,7-tetrahydroxyflavone]	Luteolin 4′-glucoside was biosynthesized
